Reference: patent US10792289B2 (Horizon Orphan LLC, priority 2009, dated 2020)

Tested on: P. aeruginosa
Experiment: Phase 2 study: P. aeruginosa density in sputum
Format: in vivo, Pseudomonas aeruginosa
Conditions: for Reduction in P. aeruginosa density in sputum: median Day 1 to Day 28
Description: The following dosage regimens (as nebulizer loaded doses) were evaluated: 120 mg QD (daily); 240 mg QD (daily); and 240 mg BID (twice daily).
Patients were assessed on Day 1, 7, 14, and 28, and then up to 28 days after completion of study drug, namely, Days 42 and 56. The end of the study was defined as the last visit of the last patient.
Efficacy was evaluated by microbiologic assessment of sputum samples, time to need for anti-pseudomonal antimicrobials, the Cystic Fibrosis Questionaire-Revised (CFQ-R), and pulmonary function tests. […] Pair-wise comparisons between all the treatment arms were conducted as secondary analyses.

[1] = EE, 120 mg QD, Baseline to Day 7
[2] = EE, 120 mg QD, Baseline to Day 14
[3] = EE, 120 mg QD, Baseline to Day 28
[4] = EE, 240 mg BID, Baseline to Day 7
[5] = EE, 240 mg BID, Baseline to Day 14
[6] = EE, 240 mg BID, Baseline to Day 28
[7] = EE, 240 mg QD, Baseline to Day 7
[8] = EE, 240 mg QD, Baseline to Day 14
[9] = EE, 240 mg QD, Baseline to Day 28
[10] = EE, combined 240 mg QD and BID, Baseline to Day 7
[11] = EE, combined 240 mg QD and BID, Baseline to Day 14
[12] = EE, combined 240 mg QD and BID, Baseline to Day 28
[13] = EE, combined 240 mg QD and BID, Day 1
[14] = EE, combined 240 mg QD and BID, Day 7
[15] = EE, combined 240 mg QD and BID, Day 14
[16] = EE, combined 240 mg QD and BID, Day 28
[17] = MITT, 120 mg QD, Baseline to Day 7
[18] = MITT, 120 mg QD, Baseline to Day 14

## C[C@H]1COc2c(N3CCN(C)CC3)c(F)cc3c(=O)c(C(=O)O)cn1c23 [Levofloxacin, levofloxacin]
[1]
  Change in P. aeruginosa density, mean (SD): −0.76 (1.263) log10 CFU sputum
  Change in P. aeruginosa density, median: −0.58 log10 CFU sputum
[2]
  Change in P. aeruginosa density, mean (SD): −0.10 (1.240) log10 CFU sputum
  Change in P. aeruginosa density, median: 0.00 log10 CFU sputum
[3]
  Change in P. aeruginosa density, mean (SD): −0.31 (1.050) log10 CFU sputum
  Change in P. aeruginosa density, median: −0.20 log10 CFU sputum
EE, 120 mg QD, Day 1
  P. aeruginosa density, median: 8.17 log10 CFU sputum
EE, 120 mg QD, Day 7
  P. aeruginosa density, mean (SD): 6.64 (1.818) log10 CFU sputum
  P. aeruginosa density, median: 6.86 log10 CFU sputum
EE, 120 mg QD, Day 14
  P. aeruginosa density, mean (SD): 7.32 (1.643) log10 CFU sputum
  P. aeruginosa density, median: 8.00 log10 CFU sputum
EE, 120 mg QD, Day 28
  P. aeruginosa density, mean (SD): 7.25 (1.431) log10 CFU sputum
  P. aeruginosa density, median: 7.78 log10 CFU sputum
EE, 120 mg QD
  Reduction in P. aeruginosa density in sputum: approximately 59%
[4]
  Change in P. aeruginosa density, mean (SD): −1.03 (1.921) log10 CFU sputum
  Change in P. aeruginosa density, median: −0.88 log10 CFU sputum
[5]
  Change in P. aeruginosa density, mean (SD): −0.83 (1.901) log10 CFU sputum
  Change in P. aeruginosa density, median: −0.91 log10 CFU sputum
[6]
  Change in P. aeruginosa density, mean (SD): −0.74 (1.488) log10 CFU sputum
  Change in P. aeruginosa density, median: −0.68 log10 CFU sputum
EE, 240 mg BID, Day 1
  P. aeruginosa density, mean (SD): 7.26 (1.433) log10 CFU sputum
  P. aeruginosa density, median: 7.84 log10 CFU sputum
EE, 240 mg BID, Day 7
  P. aeruginosa density, mean (SD): 6.23 (1.850) log10 CFU sputum
  P. aeruginosa density, median: 6.52 log10 CFU sputum
EE, 240 mg BID, Day 14
  P. aeruginosa density, mean (SD): 6.43 (1.725) log10 CFU sputum
  P. aeruginosa density, median: 6.81 log10 CFU sputum
EE, 240 mg BID, Day 28
  P. aeruginosa density, mean (SD): 6.65 (1.440) log10 CFU sputum
  P. aeruginosa density, median: 6.40 log10 CFU sputum
EE, 240 mg BID
  Reduction in P. aeruginosa density in sputum: approximately 96%
[7]
  Change in P. aeruginosa density, mean (SD): −0.25 (1.789) log10 CFU sputum
  Change in P. aeruginosa density, median: −0.18 log10 CFU sputum
[8]
  Change in P. aeruginosa density, mean (SD): −0.47 (1.905) log10 CFU sputum
  Change in P. aeruginosa density, median: −0.11 log10 CFU sputum
[9]
  Change in P. aeruginosa density, mean (SD): −0.38 (1.780) log10 CFU sputum
  Change in P. aeruginosa density, median: −0.52 log10 CFU sputum
EE, 240 mg QD, Day 1
  P. aeruginosa density, mean (SD): 7.16 (1.597) log10 CFU sputum
  P. aeruginosa density, median: 7.97 log10 CFU sputum
EE, 240 mg QD, Day 7
  P. aeruginosa density, mean (SD): 6.94 (1.783) log10 CFU sputum
  P. aeruginosa density, median: 7.15 log10 CFU sputum
EE, 240 mg QD, Day 14
  P. aeruginosa density, mean (SD): 6.69 (1.628) log10 CFU sputum
  P. aeruginosa density, median: 6.46 log10 CFU sputum
EE, 240 mg QD, Day 28
  P. aeruginosa density, mean (SD): 6.78 (1.896) log10 CFU sputum
  P. aeruginosa density, median: 7.38 log10 CFU sputum
EE, 240 mg QD
  Reduction in P. aeruginosa density in sputum: approximately 74%
EE, Day 7
  Largest difference in P. aeruginosa density, placebo vs levofloxacin: 1.62 log10 CFU/g sputum
EE, Day 14
  Largest difference in P. aeruginosa density, placebo vs levofloxacin: 1.39 log10 CFU/g sputum
EE, Day 28
  Largest difference in P. aeruginosa density, placebo vs levofloxacin: 1.88 log10 CFU/g sputum
[10]
  Change in P. aeruginosa density, mean (SD): −0.64 (1.833) log10 CFU sputum
  Change in P. aeruginosa density, median: −0.37 log10 CFU sputum
[11]
  Change in P. aeruginosa density, mean (SD): −0.65 (1.898) log10 CFU sputum
  Change in P. aeruginosa density, median: −0.46 log10 CFU sputum
[12]
  Change in P. aeruginosa density, mean (SD): −0.55 (1.645) log10 CFU sputum
  Change in P. aeruginosa density, median: −0.58 log10 CFU sputum
[13]
  P. aeruginosa density, mean (SD): 7.21 (1.508) log10 CFU sputum
  P. aeruginosa density, median: 7.90 log10 CFU sputum
[14]
  P. aeruginosa density, mean (SD): 6.59 (1.838) log10 CFU sputum
  P. aeruginosa density, median: 6.77 log10 CFU sputum
[15]
  P. aeruginosa density, mean (SD): 6.56 (1.669) log10 CFU sputum
  P. aeruginosa density, median: 6.78 log10 CFU sputum
[16]
  P. aeruginosa density, mean (SD): 6.72 (1.683) log10 CFU sputum
  P. aeruginosa density, median: 6.90 log10 CFU sputum
[17]
  Change in P. aeruginosa density, mean: −0.70 log10 CTU/g sputum
  Change in P. aeruginosa density, median: −0.53 log10 CTU/g sputum
[18]
  Change in P. aeruginosa density, mean: −0.07 log10 CTU/g sputum
  Change in P. aeruginosa density, median: 0.00 log10 CTU/g sputum
